According to patent publication US20260240683A1, “MOLECULAR LINKERS” (CWAN TECHNOLOGIES PTY LTD, priority 2023, published 2026):

Tests used:
[1] = Ru(bpy)3 diffusion through debrided bovine cadaver corneal stroma; type: in vitro ADME; conditions: PBS solution containing 0.5 mM Ru(bpy)3; 800 μm thick bovine cadaver corneal stroma; within 6 minutes
Method: 10 fresh bull eyes were obtained from an abattoir (<10 hours old, stored at 4° C.). Using a digital caliper, the thickness of the corneas was determined to be within the range of 740 μm to 820 μm. The epithelium of the eyes was debrided with an 8 mm biopsy punch and scraped-off with a scalpel blade.
[…] Excess Ru(bpy)3 solution was removed by blotting using a fresh Kimwipe tissue.
Corneas were frozen on the surface of an aluminium block at −20° C. for 2 minutes (FIG. 7B). Transverse (bisecting) cross-sections of cornea were prepared by cutting a 1 mm thick section using a razor blade. The corneal cross-section was mounted on a glass slide to allow visualization of the cross-sectional area of the corneal stroma (FIG. 7C). Ru(bpy)3 was visualized through a red filter with illumination with a 450 nm LED light (FIG. 7).
The rate of diffusion of Ru(bpy)3 through both fresh bovine cadaver corneal stroma and through a thermally gelled 12% gelatin hydrogel (as a model corneal stromal matrix), was studied.

[2] = Diffusion of Ru(bpy)3+SPS and photochemical crosslinking of 1 mm 12% gelatin hydrogel (weight after 65° C. melt); type: physicochemical
Method: Method: 12% Gelatin (Sigma G1890) Type A 300 Bloom in PBS (pH 7.4), was melted at 50° C. and 60 μL added to an 8.5 mm (diameter) disc×1 mm (deep) Teflon mould. The gelatin was allowed to set thermally for 10 min at 18.5° C. 60 μL of Ru(bpy)3/SPS solution (either a 0.5 mM Ru(bpy)3+50 mM SPS; a 1.0 mM Ru(bpy)3+50 mM SPS or a 2.0 mM Ru(bpy)3+50 mM SPS) was added and allowed to diffuse into the gel disc for varying times (0, 2, 4, 6, 8, 10, 14 min). Excess liquid was blotted from the top surface of the mould. At the end point of the diffusion period, the thermally set gelatin hydrogel was illuminated using a 3M ESPE blue LED lamp (1,200 mW/cm^2) for 5 sec at 1 cm distance from the light guide tip. The crosslinked gelatin hydrogel was weighed on a microbalance before being placed into a 65° C. water bath for 30 sec. Excess liquid was removed from the crosslinked hydrogel and it was again weighed to measure residual crosslinked gelatin hydrogel. A plot was prepared showing % crosslinked gelatin vs diffusion time (zero to 14 min).
Aim: To determine the time required for a solution containing Ru(bpy)3+SPS to diffuse through a 1 mm thick sheet of thermally-gelled gelatin and then to form covalent crosslinks between gelatin molecules, thus rendering the hydrogel resistant to subsequent melting at high temperature. […]

[3] = Diffusion into thermally gelled 12% gelatin gel disc (A452 read-out), model corneal stroma; type: physicochemical
Method: A 12% Gelatin (Sigma G1890) Type A, 300 Bloom solution was prepared in PBS (pH7.4) by melting at 50° C. 60 μL was added to an 8.5 mm (diameter)×1 mm (deep) round Teflon mould. The Gelatin was allowed to set thermally for 10 min at 18.5° C. At 10 min, 60 μL 0.5 mM Ru(bpy)3 (0.5 mM solution in PBS) is added to the top of the thermally gelled 12% gelatin disc. The gelatin disc was covered with foil during diffusion time. Excess solution was blotted from the top of the gel using a Kimwipe. Remove gelled disc using spatula, add to 940 μL of PBS @55° C. Melt gel (30 sec)—add solution to cuvette, read A452.
If diffusion is expressed as a percentage of the total disc volume equilibrated with the applied 0.5 mM Ru(bpy)3 solution, then, assuming total mixing of the applied 60 μL solution with the 60 μL gelatin disc, 100% diffusion would represent an A452 of 0.205 [0.221−0.016=gelatin−PBS blank)]. So, diffusion to 30% of the hydrogel depth/thickness (in this case representing ca. 300 μm) would be attained in about 2.3 min. This is the desired depth of penetration of a crosslinking agent in the human cornea (by comparison with Riboflavin-based CXL methods, which require 30 minutes of diffusion).

[4] = Photochemical crosslinking of corneal stroma using 3D template mould; parameters: species or system bovine; conditions: 300 μL, 10 min diffusion, 20 sec 450 nm blue LED at 1 cm; 1 mM Ru(bpy)3 with or without 50 mM SPS
Method: The entire epithelium was debrided from a cornea. 300 μL of 1 mM Ru(bpy)3+50 mM SPS was applied to the anterior corneal surface for a diffusion time of 10 minutes (FIG. 9A). The cornea was wrapped over a metal piping nozzle, acting as a mould, and irradiated for 20 seconds using 450 nm blue LED dental lamp at a distance of 1 cm from the light guide tip (FIG. 9B).
A cornea was subject to the crosslinking protocol described in Example 3A, except that sodium persulphate (SPS) was omitted. […] In its absence, singlet oxygen radical production by short (20 sec) blue light irradiation of Ru(bpy)3 in aqueous solution is insufficient to cause any measurable covalent crosslinking of endogenous stromal proteins. In contrast, in its presence, crosslinking of endogenous corneal proteins and “molecular linkers” occurs rapidly and quantitatively.

[5] = Riboflavin solubility at 0.1% in PBS; type: physicochemical

Structure (SMILES)	depth of free diffusion through corneal stroma [1]	time to diffuse through the entire 1.0 mm thickness of 12% (w/v) gelatin hydrogel ([2]; Ru(bpy)3+50 mM SPS solutions (0.5, 1.0, 2.0 mM))	covalent crosslinking of gelatin hydrogel after the diffusion step ([2]; Ru(bpy)3+SPS, 5 second illumination with 450 nm blue LED lamp)	time to diffuse to 30% of the hydrogel depth/thickness (ca. 300 μm) ([3]; 0.5 mM Ru(bpy)3 in PBS, 60 μL on 1 mm deep 12% gelatin disc)	formation of templated 3D structure of cornea after photo-crosslinking on mould [4]	solubility at 0.1% (2.6 mM) ([5]; PBS (pH 7.4))	solubility at 0.1% (2.6 mM) ([5]; PBS with NaOH added, pH ca. 8.5, RT)	rate of diffusion through 12% gelatin hydrogel compared with 0.5 mM Ru(bpy)3 solution ([3]; Riboflavin 0.1% (2.6 mM))
[Cl-].[Cl-].[Ru+2].c1ccc(-c2ccccn2)nc1.c1ccc(-c2ccccn2)nc1.c1ccc(-c2ccccn2)nc1 [Ru(bpy)3, ruthenium (tris)bipyridyl chloride]	400 μm	≤ 6 min	entire gelatin hydrogel can be covalently crosslinked	about 2.3 min	no mould template structure was formed			
Cc1cc2nc3c(=O)[nH]c(=O)nc-3n(C[C@H](O)[C@H](O)[C@H](O)CO)c2cc1C [Riboflavin, riboflavin]						=2.6 mM in PBS (pH 7.4) - not fully soluble in PBS*	*Added 1 μL of 10N NaOH to 2 ml of 0.1% solution in PBS - took pH to ca. 8.5 (by pH paper test). Riboflavin solution was now fully soluble at 0.1% (2.6 mM) at RT.	slightly slower
